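How tested: cells in 96-well plates exposed to compound for 48 hours at five concentrations. GI50 = concentration required for 50% inhibition of growth. The concentration for full growth arrest is given as TGI.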 Some results are limits rather than exact numbers.

The test system of the first assay is A498 renal. In words: growth of human tumour cells (NCI), 48 h.
Take `O=C(CI)NC1Oc2ccccc2-c2oc(=O)c(-c3ccccc3)cc21` (stereo not drawn): the GI50 was 1.85 µM and the TGI is 3.62 µM.

As to `O=C1/C(=C/c2ccc(Br)cc2)C=C(c2ccccc2)N1CCc1ccccc1`, the GI50 was 0.652 µM and the TGI is 5.44 µM.

Turning to `COc1cc2c3c(n(C)c(=O)c2cc1OC)-c1cc2c(cc1/C3=C\CCCN1C(=O)c3ccccc3C1=O)OCO2`, the GI50 was over 40 µM and the TGI was over 40 µM.

Turning to `COc1cc(/C=C/c2cc(/C=C/c3ccc(O)c(OC)c3)n(-c3ccccc3)n2)ccc1O`, the GI50 is 0.575 µM and the TGI worked out at 1.82 µM.

As for `Cc1ccc(-c2c3c([nH]c(=O)c2C#N)-c2cc(F)ccc2OC3)cc1`, the GI50 was over 100 µM and the TGI was over 100 µM.

The test system of another assay is BT-549 breast. In words: growth of human tumour cells (NCI), 48 h.
In turn, `COc1cnc2cc(C(=O)O)c3c([N+](=O)[O-])cccc3c2c1` displayed a TGI of over 100 µM.

Regarding `O=C(CI)NC1Oc2ccccc2-c2oc(=O)c(-c3ccccc3)cc21` (stereo not drawn), the GI50 was 1.7 µM and the TGI is 3.24 µM.

Consider `O=C1/C(=C/c2ccc(Br)cc2)C=C(c2ccccc2)N1CCc1ccccc1`, for which the GI50 was 2.59 µM and the TGI was determined as 9.06 µM.

In the case of `COc1cc2c3c(n(C)c(=O)c2cc1OC)-c1cc2c(cc1/C3=C\CCCN1C(=O)c3ccccc3C1=O)OCO2`, the GI50 is 8.26 µM and the TGI was over 40 µM.

Take `CSc1ccc(C2=NN(C(C)=O)C(c3cc(C)cs3)C2)cc1` (stereo not drawn): the GI50 is 17.1 µM and the TGI was found to be 63.7 µM.

For `COc1cc(/C=C/c2cc(/C=C/c3ccc(O)c(OC)c3)n(-c3ccccc3)n2)ccc1O`, the GI50 was 0.631 µM and the TGI is 22.8 µM.

For a further assay, the system named is IGROV1 ovarian. In words: growth of human tumour cells (NCI), 48 h.
For `COc1cnc2cc(C(=O)O)c3c([N+](=O)[O-])cccc3c2c1`, the TGI was over 100 µM.

Regarding `O=C1/C(=C/c2ccc(Br)cc2)C=C(c2ccccc2)N1CCc1ccccc1`, the GI50 is 1.71 µM and the TGI stood at 12 µM.

Consider `CSc1ccc(C2=NN(C(C)=O)C(c3cc(C)cs3)C2)cc1` (stereo not drawn), for which the GI50 was 29.7 µM and the TGI was over 100 µM.

Regarding `COc1cc(/C=C/c2cc(/C=C/c3ccc(O)c(OC)c3)n(-c3ccccc3)n2)ccc1O`, the GI50 is 0.532 µM and the TGI was determined as 4.02 µM.

As for `Cc1ccc(-c2c3c([nH]c(=O)c2C#N)-c2cc(F)ccc2OC3)cc1`, the GI50 was 52.3 µM and the TGI was over 100 µM.

For the next assay, the system named is M14 melanoma. The experiment in a line: growth of human tumour cells (NCI), 48 h.
On to `COc1cnc2cc(C(=O)O)c3c([N+](=O)[O-])cccc3c2c1`, for which the TGI was over 100 µM.

In the case of `O=C(CI)NC1Oc2ccccc2-c2oc(=O)c(-c3ccccc3)cc21` (stereo not drawn), the GI50 is 1.67 µM and the TGI came out at 3.2 µM.

For `O=C1/C(=C/c2ccc(Br)cc2)C=C(c2ccccc2)N1CCc1ccccc1`, the GI50 was 3.53 µM and the TGI is 71.8 µM.

As to `COc1cc2c3c(n(C)c(=O)c2cc1OC)-c1cc2c(cc1/C3=C\CCCN1C(=O)c3ccccc3C1=O)OCO2`, the GI50 is over 40 µM and the TGI is over 40 µM.

Regarding `Cc1ccc(-c2c3c([nH]c(=O)c2C#N)-c2cc(F)ccc2OC3)cc1`, the GI50 is 29.9 µM and the TGI was over 100 µM.

The next assay concerns MDA-MB-231 breast. The experiment in a line: growth of human tumour cells (NCI), 48 h.
Take `COc1cnc2cc(C(=O)O)c3c([N+](=O)[O-])cccc3c2c1`: the TGI is over 100 µM.

Consider `O=C1/C(=C/c2ccc(Br)cc2)C=C(c2ccccc2)N1CCc1ccccc1`, for which the GI50 was 1.67 µM and the TGI came out at 24.7 µM.

With `CSc1ccc(C2=NN(C(C)=O)C(c3cc(C)cs3)C2)cc1` (stereo not drawn), the GI50 was 27.5 µM and the TGI is over 100 µM.

`COc1cc(/C=C/c2cc(/C=C/c3ccc(O)c(OC)c3)n(-c3ccccc3)n2)ccc1O`: the GI50 is 0.557 µM and the TGI was 6.94 µM.

Consider `Cc1ccc(-c2c3c([nH]c(=O)c2C#N)-c2cc(F)ccc2OC3)cc1`, for which the GI50 was 34.8 µM and the TGI is over 100 µM.

For another assay, the system named is NCI-H460 lung. In words: growth of human tumour cells (NCI), 48 h.
For `COc1cnc2cc(C(=O)O)c3c([N+](=O)[O-])cccc3c2c1`, the TGI is over 100 µM.

On to `O=C1/C(=C/c2ccc(Br)cc2)C=C(c2ccccc2)N1CCc1ccccc1`, for which the GI50 was 0.906 µM and the TGI was 10.2 µM.

Consider `COc1cc2c3c(n(C)c(=O)c2cc1OC)-c1cc2c(cc1/C3=C\CCCN1C(=O)c3ccccc3C1=O)OCO2`, for which the GI50 is 4.76 µM and the TGI was over 40 µM.

On to `CSc1ccc(C2=NN(C(C)=O)C(c3cc(C)cs3)C2)cc1` (stereo not drawn), for which the GI50 was 27.3 µM and the TGI was over 100 µM.

For `Cc1ccc(-c2c3c([nH]c(=O)c2C#N)-c2cc(F)ccc2OC3)cc1`, the GI50 was 53.4 µM and the TGI was over 100 µM.

The test system of another assay is OVCAR-3 ovarian. In words: growth of human tumour cells (NCI), 48 h.
In turn, `COc1cnc2cc(C(=O)O)c3c([N+](=O)[O-])cccc3c2c1` showed a TGI of over 100 µM.

As to `O=C(CI)NC1Oc2ccccc2-c2oc(=O)c(-c3ccccc3)cc21` (stereo not drawn), the GI50 was 1.3 µM and the TGI is 2.71 µM.

Regarding `O=C1/C(=C/c2ccc(Br)cc2)C=C(c2ccccc2)N1CCc1ccccc1`, the GI50 was 1.78 µM and the TGI was 7.34 µM.

Regarding `COc1cc2c3c(n(C)c(=O)c2cc1OC)-c1cc2c(cc1/C3=C\CCCN1C(=O)c3ccccc3C1=O)OCO2`, the GI50 is over 40 µM and the TGI was over 40 µM.

As to `CSc1ccc(C2=NN(C(C)=O)C(c3cc(C)cs3)C2)cc1` (stereo not drawn), the GI50 is 23.9 µM and the TGI was over 100 µM.

Regarding `COc1cc(/C=C/c2cc(/C=C/c3ccc(O)c(OC)c3)n(-c3ccccc3)n2)ccc1O`, the GI50 is 0.266 µM and the TGI turned out to be 0.938 µM.

On to `Cc1ccc(-c2c3c([nH]c(=O)c2C#N)-c2cc(F)ccc2OC3)cc1`, for which the GI50 was 25.4 µM and the TGI came to 81.9 µM.

Another assay concerns SK-MEL-28 melanoma. The experiment in a line: growth of human tumour cells (NCI), 48 h.
For `COc1cnc2cc(C(=O)O)c3c([N+](=O)[O-])cccc3c2c1`, the TGI is over 100 µM.

With `O=C(CI)NC1Oc2ccccc2-c2oc(=O)c(-c3ccccc3)cc21` (stereo not drawn), the GI50 is 1.81 µM and the TGI is 3.31 µM.

For the molecule `O=C1/C(=C/c2ccc(Br)cc2)C=C(c2ccccc2)N1CCc1ccccc1`, the GI50 is 2.75 µM and the TGI is 17 µM.

Consider `COc1cc2c3c(n(C)c(=O)c2cc1OC)-c1cc2c(cc1/C3=C\CCCN1C(=O)c3ccccc3C1=O)OCO2`, for which the GI50 was over 40 µM and the TGI was over 40 µM.

For the molecule `CSc1ccc(C2=NN(C(C)=O)C(c3cc(C)cs3)C2)cc1` (stereo not drawn), the GI50 is 37 µM and the TGI is over 100 µM.

For `COc1cc(/C=C/c2cc(/C=C/c3ccc(O)c(OC)c3)n(-c3ccccc3)n2)ccc1O`, the GI50 is 0.386 µM and the TGI was 2.72 µM.

Regarding `Cc1ccc(-c2c3c([nH]c(=O)c2C#N)-c2cc(F)ccc2OC3)cc1`, the GI50 is over 100 µM and the TGI is over 100 µM.

In another assay the test system is UACC-257 melanoma. The experiment in a line: growth of human tumour cells (NCI), 48 h.
Molecule `COc1cnc2cc(C(=O)O)c3c([N+](=O)[O-])cccc3c2c1` displayed a TGI of over 100 µM.

In the case of `O=C(CI)NC1Oc2ccccc2-c2oc(=O)c(-c3ccccc3)cc21` (stereo not drawn), the GI50 was 2.07 µM and the TGI was 4.84 µM.

`O=C1/C(=C/c2ccc(Br)cc2)C=C(c2ccccc2)N1CCc1ccccc1`: the GI50 is 2.82 µM and the TGI was determined as 18.7 µM.

With `COc1cc2c3c(n(C)c(=O)c2cc1OC)-c1cc2c(cc1/C3=C\CCCN1C(=O)c3ccccc3C1=O)OCO2`, the GI50 was over 40 µM and the TGI is over 40 µM.

Regarding `CSc1ccc(C2=NN(C(C)=O)C(c3cc(C)cs3)C2)cc1` (stereo not drawn), the GI50 was 28.4 µM and the TGI is 96.1 µM.

As for `COc1cc(/C=C/c2cc(/C=C/c3ccc(O)c(OC)c3)n(-c3ccccc3)n2)ccc1O`, the GI50 is 1.22 µM and the TGI was found to be 4.72 µM.

Take `Cc1ccc(-c2c3c([nH]c(=O)c2C#N)-c2cc(F)ccc2OC3)cc1`: the GI50 is over 100 µM and the TGI was over 100 µM.

In another assay the test system is UACC-62 melanoma. In words: growth of human tumour cells (NCI), 48 h.
As for `COc1cnc2cc(C(=O)O)c3c([N+](=O)[O-])cccc3c2c1`, the TGI was over 100 µM.

In the case of `O=C(CI)NC1Oc2ccccc2-c2oc(=O)c(-c3ccccc3)cc21` (stereo not drawn), the GI50 is 1.73 µM and the TGI came to 3.25 µM.

Take `CSc1ccc(C2=NN(C(C)=O)C(c3cc(C)cs3)C2)cc1` (stereo not drawn): the GI50 was 11.2 µM and the TGI stood at 98.4 µM.

`Cc1ccc(-c2c3c([nH]c(=O)c2C#N)-c2cc(F)ccc2OC3)cc1`: the GI50 is 61.2 µM and the TGI is over 100 µM.

Values taken from PubChem BioAssay (NCI).
